In series [1] the test system is Staphylococcus aureus (Isolate ID ATCC 29213). Nature of the series: Antibacterial activity, MIC, S. aureus. In kind it is cell-based. The note with it: Staphylococcus aureus, ATCC29213, Gram positive strain; broth microdilution or agar dilution. The method in brief: (§1)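 Broth microdilution or agar dilution per CLSI M7-A7; MIC read as susceptibility endpoint in liquid or solid medium.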
(Broth dilution looks for growth in wells or tubes with falling amounts of substance.)

Series [2] concerns Haemophilus influenzae (Isolate ID ATCC 49247). Nature of the series: Antibacterial activity, MIC, H. influenzae. In kind it is cell-based. The note with it: Haemophilus influenzae, ATCC49247; Gram negative strain; broth microdilution or agar dilution. In short, it runs like this: as §1
Series [3] deals with Streptococcus pyogenes (Isolate ID ATCC 51339). In words: Antibacterial activity, MIC, S. pyogenes. It counts as cell-based. The following applies: Streptococcus pyogenes, ATCC51339, Gram positive strain; broth microdilution or agar dilution. In short, it runs like this: as §1
A short description of a further series: physchem. The note with it: kinetic from dmso stock. The method in brief: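 DMSO doubling dilutions were diluted twenty-fold into 100 mM citrate (pH 4), PBS (pH 7.4) or carbonate-bicarbonate (pH 9). After 24 h equilibration at room temperature, absorbance was read at 620 nm. The reported value is the highest concentration without measurable precipitate.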

The test system of series [4] is Enterococcus faecalis (Isolate ID ATCC 29212). Nature of the series: Antibacterial activity, MIC, E. faecalis. It counts as cell-based. The following applies: Enterococcus faecalis, ATCC29212; Gram positive strain; broth microdilution or agar dilution. The method in brief:
as §1

Where [5] appears, read: pH 7.4, aqueous buffer, Solubility (pH 7.4).
The mark [6] stands for this setting: pH 7.4, aqueous buffer, Solubility Range.
The mark [7] stands for this setting: pH 7.4, aqueous buffer, Max Solubility.
[8] abbreviates: pH 7.4, aqueous buffer, Solubility Range (maximum solubility).
Setting [9] is: pH 9, aqueous buffer, Max Solubility.
[10] abbreviates: pH 9, aqueous buffer, Solubility Range (maximum solubility).

Values after ≈ are worked out from the molar mass of the structure shown.

As to `CCNC(=O)Nc1nc2cc(-c3cnc(N4CCC(C(=O)O)(C(C)C)CC4)nc3)cc(-c3ccccn3)c2s1` [Compound 137], the MIC was at most 0.25 µg/mL in series [1], 1 to 16 µg/mL (≈ 1.83 to 29.3 µM) in series [2], at most 0.25 µg/mL in series [3] and at most 0.25 µg/mL in series [4]. The solubility at 24 h is 400 µg/mL (≈ 733 µM) in the series “physchem” (setting [5]) and 400 to 800 µg/mL (≈ 733 to 1470 µM) in “physchem” (setting [6]).
Consider `CCNC(=O)Nc1nc2cc(-c3cnc(N4CCC(SC)(C(=O)O)CC4)nc3)cc(-c3ccccn3)c2s1` [Compound 138], for which the MIC in series [1] was at most 0.25 µg/mL; in series [2], 1 to 16 µg/mL (≈ 1.82 to 29.1 µM); in series [3] it was at most 0.25 µg/mL; in series [4], at most 0.25 µg/mL. Moreover, the results for the solubility at 24 h in the series “physchem” (setting [5]) and in “physchem” (setting [6]) were at least 800 µg/mL and over 800 µg/mL, respectively.
Turning to `C=CCC1(C(=O)O)CCN(c2ncc(-c3cc(-c4cnccn4)c4sc(NC(=O)NCC)nc4c3)cn2)CC1` [Compound 139, 4-allyl-1-[5-[2-(ethylcarbamoylamino)-7-pyrazin-2-yl-1,3-benzothiazol-5-yl]pyrimidin-2-yl]piperidine-4-carboxylic acid], the MIC is at most 0.25 µg/mL in series [1], 1 to 16 µg/mL (≈ 1.84 to 29.4 µM) in series [2], at most 0.25 µg/mL in series [3] and at most 0.25 µg/mL in series [4]. The values for the solubility at 24 h in the series “physchem” (setting [5]) and in the series “physchem” (setting [6]) were at least 800 µg/mL and over 800 µg/mL, respectively.
As for `CCNC(=O)Nc1nc2cc(-c3cnc(N4CCC(CC(F)(F)F)(C(=O)O)CC4)nc3)cc(-c3ccccn3)c2s1` [Compound 140], the MIC is 0.25 to 1 µg/mL (≈ 0.427 to 1.71 µM) in series [1], 1 to 16 µg/mL (≈ 1.71 to 27.3 µM) in series [2], at most 0.25 µg/mL in series [3] and at most 0.25 µg/mL in series [4]. Further, the solubility at 24 h is at least 800 µg/mL in the series “physchem” (setting [7]), at least 800 µg/mL in the series “physchem” (setting [5]), over 800 µg/mL in the series “physchem” (setting [6]) and over 800 µg/mL in the series “physchem” (setting [8]).
On to `CCNC(=O)Nc1nc2cc(-c3cnc(N4CCC(C(=O)O)(C(F)(F)F)CC4)nc3)cc(-c3ccccn3)c2s1` [Compound 142, 1-[5-[2-(ethylcarbamoylamino)-7-(2-pyridyl)-1,3-benzothiazol-5-yl]pyrimidin-2-yl]-4-(trifluoromethyl)piperidine-4-carboxylic acid], for which the MIC in series [1] is 1 to 16 µg/mL (≈ 1.75 to 28 µM); in series [2], 1 to 16 µg/mL (≈ 1.75 to 28 µM); in series [3], at most 0.25 µg/mL; in series [4], at most 0.25 µg/mL. Further, the solubility at 24 h is at least 800 µg/mL in the series “physchem” (setting [7]), at least 800 µg/mL in “physchem” (setting [5]), over 800 µg/mL in the series “physchem” (setting [6]) and over 800 µg/mL in the series “physchem” (setting [8]).
As for `CCNC(=O)Nc1nc2cc(-c3cnc(N4CCC(C)(C(=O)O)CC4)nc3)cc(C#Cc3cncn3C)c2s1` [Compound 144, 1-[5-[2-(ethylcarbamoylamino)-7-[2-(3-methylimidazol-4-yl)ethynyl]-1,3-benzothiazol-5-yl]pyrimidin-2-yl]-4-methyl-piperidine-4-carboxylic acid], the MIC was 0.25 to 1 µg/mL (≈ 0.459 to 1.84 µM) in series [1], 0.25 to 1 µg/mL (≈ 0.459 to 1.84 µM) in series [2], at most 0.25 µg/mL in series [3] and at most 0.25 µg/mL in series [4]. Besides, the solubility at 24 h was 400 µg/mL (≈ 734 µM) in the series “physchem” (setting [5]) and 400 to 800 µg/mL (≈ 734 to 1470 µM) in “physchem” (setting [6]).
As for `CCNC(=O)Nc1nc2cc(-c3cnc(N4CCC(C)(C(=O)O)CC4)nc3)cc(C(=O)Nc3nccs3)c2s1` [Compound 145, 1-[5-[2-(ethylcarbamoylamino)-7-(thiazol-2-ylcarbamoyl)-1,3-benzothiazol-5-yl]pyrimidin-2-yl]-4-methyl-piperidine-4-carboxylic acid], the MIC is over 16 µg/mL in series [1], over 16 µg/mL in series [2], 1 to 16 µg/mL (≈ 1.76 to 28.2 µM) in series [3] and 0.25 to 1 µg/mL (≈ 0.441 to 1.76 µM) in series [4]. The solubility at 24 h was at least 800 µg/mL in “physchem” (setting [5]) and over 800 µg/mL in “physchem” (setting [6]).
As for `CCNC(=O)Nc1nc2cc(-c3cnc(N4CCC(C)(C(=O)O)CC4)nc3)cc(NC(=O)c3ncccn3)c2s1` [Compound 146, 1-[5-[2-(ethylcarbamoylamino)-7-(pyrimidine-2-carbonylamino)-1,3-benzothiazol-5-yl]pyrimidin-2-yl]-4-methyl-piperidine-4-carboxylic acid], the MIC in series [1], in series [2], in series [3] and in series [4] was over 16 µg/mL each time. Moreover, the solubility at 24 h in the series “physchem” (setting [5]) was 50 µg/mL (≈ 89 µM); in “physchem” (setting [6]), 12.5 to 400 µg/mL (≈ 22.3 to 712 µM).
Turning to `CCNC(=O)Nc1nc2cc(-c3cnc(N4CCC(C)(C(=O)O)CC4)nc3)cc(CN(C)c3ncccn3)c2s1` [Compound 147, 1-[5-[2-(ethylcarbamoylamino)-7-[[methyl(pyrimidin-2-yl)amino]methyl]-1,3-benzothiazol-5-yl]pyrimidin-2-yl]-4-methyl-piperidine-4-carboxylic acid], the MIC is 1 to 16 µg/mL (≈ 1.78 to 28.5 µM) in series [1], 1 to 16 µg/mL (≈ 1.78 to 28.5 µM) in series [2], 0.25 to 1 µg/mL (≈ 0.445 to 1.78 µM) in series [3] and at most 0.25 µg/mL in series [4]. The solubility at 24 h in “physchem” (setting [5]) is at least 800 µg/mL; in the series “physchem” (setting [6]) it was over 800 µg/mL.
`CCNC(=O)Nc1nc2cc(-c3cnc(N4CCC(C)(C(=O)O)CC4)nc3)cc(C#Cc3cccnc3)c2s1` [Compound 148]: the MIC in series [1] is at most 0.25 µg/mL; in series [2] it was 0.25 to 1 µg/mL (≈ 0.462 to 1.85 µM); in series [3], at most 0.25 µg/mL; in series [4], at most 0.25 µg/mL. Besides, the solubility at 24 h in the series “physchem” (setting [7]) was at least 800 µg/mL; in “physchem” (setting [5]) it was at least 800 µg/mL; in “physchem” (setting [6]) it was over 800 µg/mL; in the series “physchem” (setting [8]), over 800 µg/mL.
On to `CCNC(=O)Nc1nc2cc(-c3cnc(N4CCC(C)(C(=O)O)CC4)nc3)cc(NC(=O)c3ccccn3)c2s1` [Compound 149, 1-(5-(2-(3-ethylureido)-7-(picolinamido)benzo[d]thiazol-5-yl)pyrimidin-2-yl)-4-methylpiperidine-4-carboxylic acid], for which the MIC in series [1] was 1 to 16 µg/mL (≈ 1.78 to 28.5 µM); in series [2] it was 1 to 16 µg/mL (≈ 1.78 to 28.5 µM); in series [3], 0.25 to 1 µg/mL (≈ 0.446 to 1.78 µM); in series [4], at most 0.25 µg/mL. The solubility at 24 h in “physchem” (setting [7]) was at least 800 µg/mL; in “physchem” (setting [5]) it was at least 800 µg/mL; in “physchem” (setting [6]), over 800 µg/mL; in “physchem” (setting [8]), over 800 µg/mL.
As to `CCNC(=O)Nc1nc2cc(-c3cnc(N4CCC(C)(C(=O)O)CC4)nc3)cc(C#CC3CCCC3)c2s1` [Compound 150], the MIC in series [1] is 0.25 to 1 µg/mL (≈ 0.469 to 1.88 µM); in series [2] it was over 16 µg/mL; in series [3] it was over 16 µg/mL; in series [4] it was at most 0.25 µg/mL. In addition, the solubility at 24 h in “physchem” (setting [7]) was at least 800 µg/mL; in “physchem” (setting [5]), at least 800 µg/mL; in “physchem” (setting [6]) it was over 800 µg/mL; in “physchem” (setting [8]), over 800 µg/mL.
For `CCNC(=O)Nc1nc2cc(-c3cnc(N4CCC(C)(C(=O)O)CC4)nc3)cc(C#Cc3ccncc3)c2s1` [Compound 151], the MIC is 0.25 to 1 µg/mL (≈ 0.462 to 1.85 µM) in series [1], 1 to 16 µg/mL (≈ 1.85 to 29.5 µM) in series [2], 0.25 to 1 µg/mL (≈ 0.462 to 1.85 µM) in series [3] and at most 0.25 µg/mL in series [4]. Besides, the solubility at 24 h is 400 µg/mL (≈ 739 µM) in “physchem” (setting [5]), 400 to 800 µg/mL (≈ 739 to 1480 µM) in the series “physchem” (setting [6]), at least 800 µg/mL in “physchem” (setting [9]) and over 800 µg/mL in the series “physchem” (setting [10]).
Take `CCNC(=O)Nc1nc2cc(-c3cnc(N4CCC(C)(C(=O)O)CC4)nc3)cc(C#Cc3cccc(OC)n3)c2s1` [Compound 152, 1-[5-[2-(ethylcarbamoylamino)-7-[2-(6-methoxy-2-pyridyl)ethynyl]-1,3-benzothiazol-5-yl]pyrimidin-2-yl]-4-methyl-piperidine-4-carboxylic acid]: the MIC in series [1] was at most 0.25 µg/mL; in series [2], 1 to 16 µg/mL (≈ 1.75 to 28 µM); in series [3], at most 0.25 µg/mL; in series [4] it was at most 0.25 µg/mL. The solubility at 24 h was 100 µg/mL (≈ 175 µM) in the series “physchem” (setting [5]), 12.5 to 400 µg/mL (≈ 21.9 to 700 µM) in “physchem” (setting [6]), at least 800 µg/mL in the series “physchem” (setting [9]) and over 800 µg/mL in “physchem” (setting [10]).

Broadly, the solubility is the concentration that dissolves in the medium under given conditions. High values mean a readily soluble substance, low ones a poorly soluble substance.
